B1: IL-10: cytokine added at 2 ng/ml to IL-5-containing medium (protein, UniProt P22301 19-178, looked up)
Interleukin-10: SPGQGTQSENSCTHFPGNLPNMLRDLRDAFSRVKTFFQMKDQLDNLLLKESLLEDFKGYLGCQALSEMIQFYLEEVMPQAENQDPDIKAHVNSLGENLKTLRLRLRRCHRFLPCENKSKAVEQVKNAFNKLQEKGIYKAMSEFDIFINYIEAYMTMKIRN

What follows are molecules tested on developing eosinophils (eosinophil progenitors, EoPs) from LDBM cells (assay: Murine eosinophil liquid culture (LDBM cells, IL-5): eosinophil yield after TLR ligand or cytokine exposure). Details: cytokines added with IL-5 from Day 8 for the final 6 days of culture.
Assay type: cell-based, mouse
Description: The femurs and tibiae of mice were crushed in a sterile mortar and pestle containing 1×PBS with 2% FBS, and cells were collected by filtration through a 70-μm strainer. Red blood cells were lysed using RBC lysis buffer (Sigma, St. Louis, Mo.), and the remaining cells were subjected to centrifugation at 1700 rpm for 30 minutes on a Histopaque 1083 (Sigma) gradient. LDBM cells were aspirated from the interface, washed twice with 1× PBS and cultured at 0.8-1×10^6 cells per ml in 6-well plates or 24-well plates containing Complete Medium composed of Iscove's Modified Dulbecco's Medium (IMDM) with Glutamax (Gibco, Carlsbad, Calif.), 10% characterized FBS (HyClone, Hudson, N.H.), 2 mM L-glutamine (Gibco), 50 μM 2-ME (Sigma), and penicillin and streptomycin (Gibco) supplemented with 100 ng/mL stem cell factor (SCF; Peprotech, Rocky Hill, N.J.) and 100 ng/mL FLT3-ligand (FLT3L; Peprotech). On day 4, the medium in each non-centrifuged plate was replaced with fresh Complete Medium containing 10 ng/mL murine IL-5 (Peprotech). Medium with IL-5 was changed every 2 days thereafter. On Day 8, some cultures were treated with LPS from E. coli serotype O55:B5 (Sigma), ultrapure LPS from S. minnesota (InvivoGen, San Diego, Calif.), monophosphoryl lipid A from S. minnesota R595LPS (InvivoGen), synthetic lipid A from E. coli (InvivoGen), Pam2CSK4 (InvivoGen), Pam3CSK4 (InvivoGen), imiquimod (InvivoGen), CL264 (InvivoGen), or poly(I:C) (InvivoGen) at indicated doses in the presence of IL-5.
After TLR ligand exposure for 18-24 hours, the medium was changed to Complete Medium with IL-5 at 10 ng/ml for the remaining culture period. For neutralization experiments, monoclonal anti-mouse IFN-γ (clone 37895; R&D Systems, Minneapolis, Minn.) or rat IgG2a isotype antibody was added at 0.3 μg/ml to media during LPS exposure and to Complete Medium with IL-5 thereafter. For some experiments, cytokines (IL-6 at 0.1 ng/ml, IL-10 at 2 ng/ml, IFN-γ at 0.5 ng/ml, TNF-α at 0.5 ng/ml, or the combination of all four) were added on Day 8 to IL-5-containing Complete Medium. Cells were cultured in the presence of these individual cytokines or the cytokine combination for the remainder of the culture period.
Whole bone marrow or LDBM cells were washed twice in 1×PBS containing 1% FBS and 1 mM EDTA at a concentration of 4×10^6 cells/mL and blocked with 0.5 μg rat anti-mouse CD16/CD32 (BD Bioscience, San Diego, Calif.) for 5 minutes at 4° C. Cells were incubated with fluorescent-labeled antibodies for 30 minutes at 4° C. and then washed twice and resuspended in flow cytometry buffer. Antibodies used include rat anti-mouse CD34-FITC (BD Bioscience), rat anti-mouse TLR4-PE (Imgenex, San Diego, Calif.), rat anti-mouse Siglec-F-PE (BD Bioscience), and rat anti-mouse CCR3-FITC (R&D Systems). All flow cytometric data were acquired using a FACS Calibur or FACS Canto flow cytometer (BD Bioscience).
FIG. 3A. A schematic of LPS exposure for eosinophil progenitors is depicted. LDBM cells were stimulated with SCF and FLT3L for 4 days and subsequently cultured with IL-5 for 4 days to initiate eosinophil differentiation. On Day 8, cultured cells were stimulated with LPS and IL-5 for 18-24 hours, after which the medium was changed, and the cells were cultured for another 6 days with IL-5 alone.

Molecule | number of mature eosinophils produced (eosinophil yield)
TNF-α | no significant effect
IL-6: cytokine added at 0.1 ng/ml to IL-5-containing medium | no significant effect
IFN-γ: cytokine added at 0.5 ng/ml to IL-5-containing medium | no significant effect
B1 | no significant effect

Same assay, conditions: wild-type cultures; TLR ligand exposure 18-24 hours on Day 8 in presence of IL-5, then IL-5 alone; yield at day 11-15

Molecule | eosinophil yield (eosinophil production)
Pam2CSK4 | dose-dependent reduction in eosinophil yield
CC(C)Cn1cnc2c(N)nc3ccccc3c21 [imiquimod] | significant suppression of eosinophil yield
monophosphoryl lipid A [MPLA] | dose-dependent suppression of eosinophil production
Pam3CSK4 | dose-dependent reduction in eosinophil yield
synthetic monophosphoryl lipid A [sMPLA] | significant suppression of eosinophil production at higher doses
CCCCNc1nc(N)c2[nH]c(=O)n(Cc3ccc(C(=O)NCC(=O)O)cc3)c2n1 [CL264] | significant suppression of eosinophil yield
poly(I:C) | no effect on eosinophil production

Source: patent US20140228315A1, “BLOCKADE OF EOSINOPHIL PRODUCTION BY TOLL-LIKE RECEPTORS” (CHILDREN'S HOSPITAL MEDICAL CENTER, priority 2011, published 2014)
